ChEMBL document CHEMBL6103623, “Phenolics and Phenolic Glycosides from Wrightia pubescens and Their Hepatoprotective Activities” (J Nat Prod, 2025)
Active and inactive are the calls of the source. No cut-off for these calls is given here.

How the values were obtained:
HepG2 [1] = experiment: Hepatoprotective activity against APAP-induced cell injury in human HepG2 cells assessed as increase in survival rate preincubated for 24 hrs followed by APAP addition and measured after 24 hrs by MTT assay; type: functional, cell-based; conditions: dose 6.25-25 µM, time 48.0 hrs
HepG2 [2] = experiment: Hepatoprotective activity against APAP-induced cell injury in human HepG2 cells assessed as reduction in ALT level at 6.25 to 25 uM preincubated for 24 hrs followed by APAP addition and measured after 24 hrs; type: functional, cell-based; conditions: dose 6.25-25 µM, time 48.0 hrs
HepG2 [3] = experiment: Cytotoxicity against human HepG2 cells assessed as reduction in cell viability at 100 uM incubated for 48 hrs by MTT assay; type: toxicity, cell-based; conditions: hepg2, 48 h
HepG2 [4] = experiment: Hepatoprotective activity against APAP-induced cell injury in human HepG2 cells assessed as reduction in AST level at 6.25 to 25 uM preincubated for 24 hrs followed by APAP addition and measured after 24 hrs; type: functional, cell-based; conditions: dose 6.25-25 µM, time 48.0 hrs
HepG2 [5] = experiment: Hepatoprotective activity against APAP-induced cell injury in human HepG2 cells assessed as increase in GSH-Px activity at 6.25 to 25 uM preincubated for 24 hrs followed by APAP addition and measured after 24 hrs; type: functional, cell-based; conditions: dose 6.25-25 µM, time 48.0 hrs
HepG2 [6] = experiment: Hepatoprotective activity against APAP-induced cell injury in human HepG2 cells assessed as increase in Nrf2 expression at 6.25 to 25 uM preincubated for 24 hrs followed by APAP addition and measured after 24 hrs by Western blot analysis; type: functional, cell-based; conditions: dose 6.25-25 µM, time 48.0 hrs
HepG2 [7] = experiment: Hepatoprotective activity against APAP-induced cell injury in human HepG2 cells assessed as increase in HO-1 expression at 6.25 to 25 uM preincubated for 24 hrs followed by APAP addition and measured after 24 hrs by Western blot analysis; type: functional, cell-based; conditions: dose 6.25-25 µM, time 48.0 hrs
HepG2 [8] = experiment: Hepatoprotective activity in human HepG2 cells assessed as reduction in APAP-induced increased in ROS level at 25 uM measured after 24 hrs in presence of APAP by DCF staining based flow cytometry; type: functional, cell-based
HepG2 [9] = experiment: Hepatoprotective activity against APAP-induced human HepG2 cell apoptosis assessed as viable cells at 25 uM incubated for 24 hrs in presence of APAP by Annexin V-FITC/PI staining based flow cytometry (Rvb=62.69%); type: functional; conditions: read-out: Activity
HepG2 [10] = experiment: Hepatoprotective activity against APAP-induced cell injury in human HepG2 cells assessed as increase in GPX4 expression at 6.25 to 25 uM preincubated for 24 hrs followed by APAP addition and measured after 24 hrs by Western blot analysis; type: functional, cell-based; conditions: dose 6.25-25 µM, time 48.0 hrs
HepG2 [11] = experiment: Hepatoprotective activity in human HepG2 cells assessed as inhibition of APAP-induced increase in Bax expression preincubated for 24 hrs followed by APAP addition and measured after 24 hrs by Western blot analysis; type: functional, cell-based; conditions: dose 6.25-25 µM, time 48.0 hrs
HepG2 [12] = experiment: Hepatoprotective activity against APAP-induced human HepG2 cell apoptosis assessed as necrotic cells at 25 uM incubated for 24 hrs in presence of APAP by Annexin V-FITC/PI staining based flow cytometry (reference value: 0.49%); type: functional
HepG2 [13] = experiment: Hepatoprotective activity against APAP-induced human HepG2 cell apoptosis assessed as late apoptotic cells at 25 uM incubated for 24 hrs in presence of APAP by Annexin V-FITC/PI staining based flow cytometry (reference value: 11.01%); type: functional
HepG2 [14] = experiment: Hepatoprotective activity in human HepG2 cells assessed as restoration of APAP-induced inhibition of Bcl-2 expression preincubated for 24 hrs followed by APAP addition and measured after 24 hrs by Western blot analysis; type: functional, cell-based; conditions: dose 6.25-25 µM, time 48.0 hrs
HepG2 [15] = experiment: Hepatoprotective activity against APAP-induced human HepG2 cell apoptosis assessed as early apoptotic cells at 25 uM incubated for 24 hrs in presence of APAP by Annexin V-FITC/PI staining based flow cytometry (reference value: 25.81%); type: functional
HepG2 [16] = experiment: Hepatoprotective activity against APAP-induced cell injury in human HepG2 cells assessed as reduction in ALT level at 10 uM preincubated for 24 hrs followed by APAP addition and measured after 24 hrs; type: functional, cell-based; conditions: time 48.0 hrs
HepG2 [17] = experiment: Hepatoprotective activity against APAP-induced cell injury in human HepG2 cells assessed as reduction in AST level at 10 uM preincubated for 24 hrs followed by APAP addition and measured after 24 hrs; type: functional, cell-based; conditions: time 48.0 hrs

Structure (SMILES) | Activity (HepG2 [1]) | Activity (HepG2 [2]) | Activity (HepG2 [3]) | Activity (HepG2 [4]) | further results
COc1cc(O[C@@H]2O[C@H](COC(=O)c3cc(OC)c(O)c(OC)c3)[C@@H](O[C@@H]3O[C@H](CO)[C@@H](O)[C@H](O)[C@H]3O)[C@H](O)[C@H]2O)ccc1O | Dose-dependent-effect | Active; Significant Effect Observed | Non-toxic | Active; Significant Effect Observed | –
COc1cc(O[C@@H]2O[C@H](COC(=O)c3ccc(O)c(OC)c3)[C@@H](O[C@@H]3O[C@H](CO)[C@@H](O)[C@H](O)[C@H]3O)[C@H](O)[C@H]2O)ccc1O | Dose-dependent-effect | Active; Significant Effect Observed | Non-toxic | Active; Significant Effect Observed | Activity (HepG2 [5]): Active; Activity (HepG2 [6]): Active; Activity (HepG2 [7]): Active; Activity (HepG2 [8]): Active; viability at 25 µM (HepG2 [9]): 69.2%; Activity (HepG2 [10]): Active; inhibition (HepG2 [11]): Dose-dependent-effect; Significant Effect Observed; Activity (HepG2 [12]): 0.9%; Activity (HepG2 [13]): 9.43%; Activity (HepG2 [14]): Dose-dependent-effect; Significant Effect Observed; Activity (HepG2 [15]): 20.51%
COc1cc(CO)ccc1O[C@@H]1O[C@H](COC(=O)c2cc(OC)c(O)c(OC)c2)[C@@H](O[C@@H]2O[C@H](CO)[C@@H](O)[C@H](O)[C@H]2O)[C@H](O)[C@H]1O | Dose-dependent-effect | Active; Significant Effect Observed | Non-toxic | Active; Significant Effect Observed | –
COc1cc(O[C@@H]2O[C@H](CO)[C@@H](O)[C@H](O)[C@H]2O[C@@H]2OC[C@](O)(COC(=O)c3ccc(O)c(OC)c3)[C@H]2O)ccc1O | Dose-dependent-effect | Active; Significant Effect Observed | Non-toxic | Active; Significant Effect Observed | –
COc1cc([C@@H]2Oc3cc([C@H]4Oc5cc(O)cc(O)c5C(=O)[C@@H]4O)ccc3O[C@H]2CO)ccc1O | – | – | – | – | Activity (HepG2 [16]): Active; Activity (HepG2 [17]): Active
CCCCO[C@@H]1OC[C@](O)(COC(=O)c2ccc(O)c(OC)c2)[C@H]1O | Dose-dependent-effect | Active; Significant Effect Observed | Non-toxic | Active; Significant Effect Observed | –
CCCCO[C@H]1OC[C@](O)(COC(=O)c2ccc(O)c(OC)c2)[C@H]1O | Dose-dependent-effect | Active; Significant Effect Observed | Non-toxic | Active; Significant Effect Observed | –
COc1cc(C(=O)OC[C@H]2O[C@@H](Oc3cc(OC)c(OC)c(OC)c3)[C@H](O)[C@@H](O)[C@@H]2O)ccc1O | Dose-dependent-effect | Active; Significant Effect Observed | Non-toxic | Active; Significant Effect Observed | –
